Results taken from PMC11258614 (2024).
Where a SMILES comes first, the peptide text is derived from it.

Key:
[1] = tested on: human c-Myc promoter G4 (DNA, G4) TGAGGGTGGGTAGGGTGGGTAA; experiment: UV melting at 295 nm; settings: 30 mM sodium cacodylate pH 7.4, 0.5 mM EDTA, 4 μM DNA, DNA:peptide 1:50, derived from two Tm
[2] = tested on: human c-Myc promoter G4 (DNA, G4) TGAGGGTGGGTAGGGTGGGTAA; experiment: fluorescence titration of peptide with G4; settings: 30 mM sodium cacodylate pH 7.4, 0.5 mM EDTA, 25 °C, printed Ka in μM, Ka or Kd ambiguous

ΔTm ([1]; 100 mM K+): 0.9 °C
ΔTm ([1]; 100 mM Na+): 3.7 °C
Ka ([2]; 100 mM K+): 0.1277 ± 0.073 µM
Ka ([2]; 100 mM Na+): 0.1369 ± 0.008 µM
SMILES: CC(C)C[C@H](NC(=O)[C@@H](N)CC(N)=O)C(=O)N[C@@H](CCC(=O)O)C(=O)N[C@@H](CCCCN)C(=O)N[C@@H](CCCCN)C(=O)N[C@@H](CCCCN)C(=O)N1CCC[C@H]1C(=O)NCC(=O)O (H-NLEKKKPG-OH)
